# Test results from patent publication US20080025962A1, “Remedy for Alzheimer's Disease” (AnGesMG,Inc., priority 2005, published 2008).
# “Also recorded” adds a separate entry of the source.
# Key:
# [1] = system: Human brain microvascular endothelial cells (arterial); experiment: Cell growth (cell count) of artery endothelial cells after Aβ stimulation; assay type: cell-based; details: for Cell count (relative to control as 100): Artery endothelial cells
# Procedure: (§1) Human brain microvascular endothelial cells (HBMEC), human umbilical artery endothelial cells (HUAEC), human umbilical vein endothelial cells (HUVEC) and human aortic smooth muscle cells (HSMC) were obtained from Applied Cell Biology Research Institute. The cells were cultured using a modified MCDB131 medium supplemented with 2% or 10% FBS; those subcultured over 3 to 6 passages were used in the experiments described below.
# (§2) Human brain microvascular endothelial cells (arterial and venous) cultured in a 12-well plate by the above-described method were stimulated with Aβ1-40 (0.05 μM, 0.5 μM and 5 μM), Aβ1-42 (0.5 μM), Aβ40-1 (0.5 μM), and control (no Aβ derivative added) for 72 hours. Aβ40-1 has the sequence reverse to that of Aβ1-40. This was used as the control peptide. Next, the number of cells was counted manually using a hemocytometer.
# [2] = system: endothelial cells; experiment: Endothelial cell migration, Boyden chamber assay; assay type: cell-based, human; details: VEGF 10 ng/ml; for Effect on endothelial migration: Boyden chamber
# Procedure: as §1
# Next, endothelial cell migration was examined using Boyden chamber assay. Briefly, an EBM-2 medium comprising VEGF (10 ng/ml), Aβ1-40 (0.5 μM and 5 μM)+VEGF (10 ng/ml), Aβ40-1 (0.5 μM)+VEGF (10 ng/ml), 10% FBS or control (no Aβ derivative added) was placed in the lower section of a chamber. 5×10^4 endothelial cells (in 50 μL of EBM-2 supplemented with 0.5% bovine serum albumin) were seeded into the upper section of the chamber. Cell migration was measured by counting the cells in four highly magnified fields of vision (×40). Three experiments were performed for each group. (mean ±standard deviation: P<0.05)
# The unit of measurement is in cell count/field of vision.
# [3] = system: Akt; experiment: Western blot assay, Akt phosphorylation; assay type: cell-based, human; details: VEGF 10 ng/mL, Aβ1-40 0.5 μM, up to 40 minutes
# Procedure: (§3) After the EC reached an 80% confluence, the medium was exchanged with an FBS-free fresh medium, and the EC was allowed to stand for 4 hours. Next, the cells were stimulated with human VEGF (10 ng/mL) and Aβ1-40 (0.5 μM) for up to 40 minutes. Total cell protein extract from human endothelial cells was separated on 12.5% SDS-polyacrylamide gel, and transferred to a nitrocellulose membrane. The membrane was subjected to Western blotting using antibodies against human Akt, phosphorylated Akt and phosphorylated ERK (Cell Signaling).
# [4] = system: Human brain microvascular endothelial cells (venous); experiment: Cell growth (cell count) of venous endothelial cells after Aβ stimulation; assay type: cell-based; details: 72 hours
# Procedure: as §1, §2
# [5] = system: Human umbilical artery endothelial cells; experiment: EC vessel formation on Matrigel, artery endothelial cells; assay type: cell-based; details: for Full-length of cells on Matrigel, Mean value: Artery endothelial cells, 72 hours stimulation, 18 hours on Matrigel
# Procedure: as §1
# (§4) Human umbilical artery endothelial cells and human umbilical vein endothelial cells were stimulated with Aβ1-40 (0.5 μM and 5 μM), Aβ40-1 (0.5 μM), and control (no Aβ derivative added) for 72 hours; after reaching an 80% confluence, endothelial cells were then washed with PBS, trypsinated, and cultured on a 6-well culture plate coated with Matrigel basal membrane matrix (Becton Dickinson Labware) for 18 hours. The cells on the Matrigel were photographed, and the full-length was measured using an NIH image analyzer.
# (§5) The unit of measurement is in pixel.
# [6] = system: human umbilical vein endothelial cells; experiment: EC vessel formation on Matrigel, vein endothelial cells; assay type: cell-based; details: 72 hours stimulation, 18 hours on Matrigel
# Procedure: as §1, §4, §5
# [7] = system: c57/BL6J mice; experiment: Matrigel plug transplant assay; assay type: in vivo, mouse
# Procedure: Age-matched male c57/BL6J mice at 8 weeks of age were given 500 μL of Matrigel comprising 50 ng/mL VEGF and Aβ1-40 (5 μM), and 37 units of heparin by subcutaneous injection. Seven days later, the Matrigel plug was carefully recovered from each mouse, washed with phosphate-buffered saline (PBS) three times, and stored under freezing at −20° C. A section ([…]) of the frozen plug was fixed in ice-cooled acetone, and then stained with rat anti-mouse CD31 primary antibody (Pharmingen), FITC-conjugated anti-α smooth muscle actin antibody (Sigma) and Alexa-conjugated goat anti-rat secondary antibody (Molecular Probe).
# Blood vessel density in the stained section was evaluated by fluorescence intensity using the NIH image software. The hemoglobin content in each plug was measured as an index of adult vascular regeneration.
# [8] = system: Human SMC; experiment: ELISA assay of VEGF level in SMC culture; assay type: cell-based; details: 48 hours after stimulation
# Procedure: as §1
# Human SMC was cultured in a 12-well culture plate of an MCDB medium comprising 10% FBS. 48 hours after Aβ1-40 stimulation, the VEGF level in each well was tested by enzyme immunoassay (R&D System).
# [9] = system: ERK; experiment: Western blot assay, ERK phosphorylation; assay type: cell-based, human; details: VEGF 10 ng/mL, Aβ1-40 0.5 μM, up to 40 minutes
# Procedure: as §3
# [10] = system: low-density monocytes from the spleen of a C57BL/6J mouse; experiment: Adult vascular stem cell differentiation assay; assay type: cell-based; details: Dil-acetylated LDL and BS-1 double staining; 4 days of cultivation
# Procedure: Briefly, low-density monocytes were isolated from the spleen of a C57BL/6J mouse by a density centrifugation method using Histopaque-1083 (Sigma, St. Louis, Mo.). The cells were seeded onto a 4-well glass slide (Nunc International) coated with rat vitronectin (Sigma), and cultured in a medium comprising 2% heat inactivated defined FBS. The medium was supplemented with the endothelial growth supplementation kit, EGM-2MV single aliquot (Clonetics).
# After 4 days of cultivation, the cells were incubated with the addition of acetylated LDL (Biomedical Technologies, Stoughton, Mass.), and stained with FITC-conjugated Griffonia simplicifolia lectin I (BS1-lectin) (Vector Laboratories). In 15 fields of vision at 40× magnification, the number of cells double stained with acLDL-Dil and BS1 was counted for each sample as endothelial precursors.
# [11] = Matrigel plug with 50 ng/mL VEGF and Aβ1-40 (5 μM), subcutaneous, seven days
substance,measurement,setting,value
Aβ1-42: β-amyloid species longer than Aβ1-40 by two residues on the C-terminal side,Toxic effect on endothelial cells (necrotized cells observed),"[1]; 0.5 μM, 72 hours, FIG. 2",toxic effect on endothelial cells
vascular endothelial growth factor [VEGF],Effect on endothelial migration,[2],endothelial migration was caused by vasculogenesis by VEGF
same,"Cell migration, Mean value","[2]; substance in lower section of chamber, Aβ1-40 0.5 μM and 5 μM, Aβ40-1 0.5 μM",100.018 cell count/field of vision
same,Intracellular Akt phosphorylation,[3],stimulated
β-amyloid 1-40 [Aβ1-40],Cell count (relative to control as 100),"[1]; 0.05 μm, 72 hours",78 ± 9.481
same,Cell count (relative to control as 100),"[1]; 0.5 μm, 72 hours",75 ± 8.011
same,Cell count (relative to control as 100),"[1]; 5 μm, 72 hours",73 ± 11.699
same,Effect on growth of human brain microvascular endothelial cells,"[1]; text statement for arterial and venous cells, more conspicuous in arteries",suppressed the growth of human brain microvascular endothelial cells
same,Cell count (relative to control as 100),[4]; 0.05 μm,80 ± 18.987
same,Cell count (relative to control as 100),[4]; 0.5 μm,73 ± 11.392
same,Cell count (relative to control as 100),[4]; 5 μm,70 ± 5.968
same,"Full-length of cells on Matrigel, Mean value",[5]; 0.5 μm,8719.333 pixel
same,"Full-length of cells on Matrigel, Mean value",[5]; 5 μm,7951.167 pixel
same,Effect on EC vessel formation on Matrigel,[5]; text statement for Tables 2 and 3,suppressed EC vessel formation on Matrigel
same,"Full-length of cells on Matrigel, Mean value",[6]; 0.5 μm,10599.000 pixel
same,"Full-length of cells on Matrigel, Mean value",[6]; 5 μm,9884.333 pixel
same,Effect on endothelial migration,[2],the effect was inhibited
same,"Blood vessel density, Mean value",[7]; [11],825.800 pixel
same,"Hemoglobin content, Mean value",[7]; [11],0.084 OD 450/tissue mg
same,Effect on adult vascular regeneration in vivo,"[7]; Matrigel plug, mice",suppressive effect on adult vascular regeneration in vivo
same,Effect on VEGF secretion from VSMC,[8],no direct effect on VEGF secretion from VSMC
same,"VEGF level, Mean value","[8]; DSF, enzyme immunoassay",0.080
same,Intracellular Akt phosphorylation,[3],inhibited
same,ERK phosphorylation caused by VEGF,[9],no effect on the ERK phosphorylation caused by VEGF
same,Effect on growth and differentiation of vascular stem/precursor cells,[10],inhibitory effect on the differentiation of vascular stem cells; also recorded: suppressed the growth and differentiation of the cultured vascular precursor cells
